Measured values as given in patent publication US11161856B2 (H. Lundbeck A/S, priority 2017, dated 2021).

Assays:
ABHD6 = target: T1, ABHD6 (Mus musculus, UniProt Q8R2Y0); test: In vitro competitive activity-based protein profiling, mouse brain proteome (ABHD6); format: biochemical; settings: mouse brain proteome; concentration not given (μM)
T1 construct: Brain; from tissue; host or cells: mouse brain proteome
T1 sequence (Q8R2Y0 1-336): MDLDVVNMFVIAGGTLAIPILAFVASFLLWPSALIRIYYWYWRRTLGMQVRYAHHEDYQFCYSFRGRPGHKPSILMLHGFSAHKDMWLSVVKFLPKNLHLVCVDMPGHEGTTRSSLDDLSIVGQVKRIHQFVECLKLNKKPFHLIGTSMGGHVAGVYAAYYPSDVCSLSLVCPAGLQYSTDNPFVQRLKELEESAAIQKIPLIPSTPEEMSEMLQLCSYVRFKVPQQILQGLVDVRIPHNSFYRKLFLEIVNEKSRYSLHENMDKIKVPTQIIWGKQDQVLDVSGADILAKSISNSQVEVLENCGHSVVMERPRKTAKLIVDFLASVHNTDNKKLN
Experimental: [The source words this procedure for another target and reports this target under the same test.] In Vitro Competitive Activity-Based Protein Profiling.
Proteomes (human prefrontal cortex or cell membrane fractions) (50 μL, 1.0 mg/mL total protein concentration) were preincubated with varying concentrations of inhibitors at 37° C. After 30 min, FP-Rh or HT-01 (1.0 μL, 50 μM in DMSO) was added and the mixture was incubated for another 30 min at room temperature. Reactions were quenched with SDS loading buffer (15 μL-4×) and run on SDS-PAGE.

MGLL = target: T2, MGLL (Mus musculus, UniProt O35678); test: In vitro competitive activity-based protein profiling, mouse brain proteome (MGLL); format: biochemical; settings: concentration not given (μM)
T2 construct: Brain; from tissue; host or cells: mouse brain proteome
T2 sequence (O35678 1-303): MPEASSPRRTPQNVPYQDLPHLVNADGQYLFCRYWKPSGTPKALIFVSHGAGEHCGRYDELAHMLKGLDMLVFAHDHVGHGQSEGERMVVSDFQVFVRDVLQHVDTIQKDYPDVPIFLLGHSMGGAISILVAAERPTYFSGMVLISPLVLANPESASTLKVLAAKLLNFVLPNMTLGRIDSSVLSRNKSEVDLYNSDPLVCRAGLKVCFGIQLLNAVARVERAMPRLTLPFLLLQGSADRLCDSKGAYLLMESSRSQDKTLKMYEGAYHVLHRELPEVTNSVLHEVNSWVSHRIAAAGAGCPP

Row | SMILES | % Inh ABHD6 Brain (Mouse, μM) (ABHD6) | % Inh MGLL Brain (Mouse, μM) (MGLL)
1 | COc1ccccc1CN1CC2(CCN(C(=O)OC(C(F)(F)F)C(F)(F)F)CC2)C1 [Example 92, 1,1,1,3,3,3-Hexafluoropropan-2-yl 2-(2-methoxybenzyl)-2,7-diazaspiro[3.5]nonane-7-carboxylate] | ### (### is ≥75%) | ### (### is ≥75%)
2 | Cc1ccc(CN2CC3(CCN(C(=O)OC(C(F)(F)F)C(F)(F)F)CC3)C2)cc1 [Example 84, 1,1,1,3,3,3-Hexafluoropropan-2-yl 2-(4-methylbenzyl)-2,7-diazaspiro[3.5]nonane-7-carboxylate] | ### (### is ≥75%) | ### (### is ≥75%)
3 | O=C(OC(C(F)(F)F)C(F)(F)F)N1CC2(CCN(Cc3ccc(C(F)(F)F)cc3N3CCOCC3)CC2)C1 [Example 40, 1,1,1,3,3,3-Hexafluoropropan-2-yl 7-(2-morpholino-4-(triiluoromethyl)benzyl)-2,7-diazaspiro[3.5]nonane-2-carboxylate] | ### (### is ≥75%) | ### (### is ≥75%)
4 | CN(Cc1cc(N2CCCC2)cc(C(F)(F)F)c1)C1(C)CCN(C(=O)OC(C(F)(F)F)C(F)(F)F)CC1 [Example 76, 1,1,1,3,3,3-Hexafluoropropan-2-yl 4-methyl-4-(methyl(3-(pyrrolidin-1-yl)-5-(trifluoromethyl)bcnzyl)amino) piperidine-1-carboxylate] | # (# is ≤25%) | ### (### is ≥75%)
5 | O=C(OC(C(F)(F)F)C(F)(F)F)N1CCC2(CC1)CN(Cc1ccc(C(F)(F)F)cc1N1CCCC1)C2 [Example 151, 1,1,1,3,3,3-Hexafluoropropan-2-yl 2-(2-(pyrrolidin-1-yl)-4-(trifluoromethyl)benzyl)-2,7-diazaspiro[3.5]nonane-7-carboxylate] | ### (### is ≥75%) | ### (### is ≥75%)
6 | CC(=O)N1CCCC12CCN(c1cc(C(F)(F)F)ccc1CN1CCN(C(=O)OC(C(F)(F)F)C(F)(F)F)CC1)CC2 [Example 208, 1,1,1,3,3,3-Hexafluoropropan-2-yl 4-(2-(1-acetyl-1,8-diazaspiro[4.5]decan-8-yl)-4-(trifluoromethyl)benzyl) piperazine-1-carboxylate] | # (# is ≤25%) | ### (### is ≥75%)
7 | CS(=O)(=O)N1CCC2(CCN(c3cc(Cl)ccc3CN3CCN(C(=O)OC(C(F)(F)F)C(F)(F)F)CC3)CC2)C1 [Example 174, 1,1,1,3,3,3-Hexafluoropropan-2-yl 4-(4-chloro-2-(2-(methylsulfonyl)-2,8-diazaspiro[4.5]decan-8-yl)benzyl)piperazine-1-carboxylate] | # (# is ≤25%) | ### (### is ≥75%)
8 | CN(Cc1ccc(C(F)(F)F)cc1N1CCCC1)C1(C)CCN(C(=O)OC(C(F)(F)F)C(F)(F)F)CC1 [Example 72, 1,1,1,3,3,3-Hexafluoropropan-2-yl 4-methyl-4-(methyl(2-(pyrrolidin-1-yl)-4-(trifluoromethyl)benzyl)amino) piperidine-1-carboxylate] | # (# is ≤25%) | ### (### is ≥75%)
9 | CS(=O)(=O)N1CCCC12CCN(c1cc(Cl)ccc1CN1CCN(C(=O)OC(C(F)(F)F)C(F)(F)F)CC1)CC2 [Example 205, 1,1,1,3,3,3-Hexafluoropropan-2-yl 4-(4-chloro-2-(l-(methylsulfonyl)-1,8-diazaspiro[4.5]decan-8-yl)benzyl)piperazine-l-carboxylate] | ## (## is between 25 and 75%) | ### (### is ≥75%)
10 | O=C(OC(C(F)(F)F)C(F)(F)F)N1CCC2(CCN(Cc3cccc(Cl)c3N3CCCC3)CC2)C1 [Example 171, 1,1,1,3,3,3-Hexafluoropropan-2-yl 8-(3-chloro-2-(pyrrolidin-1-yl)benzyl)-2,8-diazaspiro[4.5]decane-2-carboxylate] | # (# is ≤25%) | ### (### is ≥75%)
11 | Cc1cccc(CN2CC3(CCN(C(=O)OC(C(F)(F)F)C(F)(F)F)CC3)C2)c1 [Example 86, 1,1,1,3,3,3-Hexafluoropropan-2-yl 2-(3-methylbenzyl)-2,7-diazaspiro[3.5]nonane-7-carboxylate] | ### (### is ≥75%) | ### (### is ≥75%)
12 | O=C(OC(C(F)(F)F)C(F)(F)F)N1CCC2(CC1)CN(Cc1ccccc1C(F)(F)F)C2 [Example 95, 1,1,1,3,3,3-Hexafluoropropan-2-yl 2-(2-(trifluoromethyl)benzyl)-2,7-diazaspiro[3.5]nonane-7-carboxylate] | ### (### is ≥75%) | ### (### is ≥75%)
13 | O=C(OC(C(F)(F)F)C(F)(F)F)N1CCC2(CC1)CN(Cc1c(Cl)cccc1N1CCC3(CCOCC3)C1)C2 [Example 48, 1,1,1,3,3,3-Hexafluoropropan-2-yl 2-(2-chloro-6-(8-oxa-2-azaspiro[4.5]decan-2-yl)benzyl)-2,7-diazaspiro[3.5]nonane-7-carboxylate] | ### (### is ≥75%) | ### (### is ≥75%)
14 | CCN1CC2(CCN(c3cc(Cl)cc(CN4CCCC45CN(C(=O)OC(C(F)(F)F)C(F)(F)F)C5)c3)CC2)C1 [Example 241, 1,1,1,3,3,3-Hexafluoropropan-2-yl 5-(3-chloro-5-(2-ethyl-2,7-diazaspiro[3,5]nonan-7-yl)benzyl)-2,5-diazaspiro[3,4]octane-2-carboxylate] | # (# is ≤25%) | # (# is ≤25%)
15 | CS(=O)(=O)N1CC2(CCN(c3cc(Cl)cc(CN4CCCC45CN(C(=O)OC(C(F)(F)F)C(F)(F)F)C5)c3)CC2)C1 [Example 240, 1,1,1,3,3,3-Hexafluoropropan-2-yl 5-(3-chloro-5-(2-(methylsulfonyl)-2,7-diazaspiro[3.5]nonan-7-yl)benzyl)-2,5-diazaspiro[3.4]octane-2-carboxylate] | ### (### is ≥75%) | ### (### is ≥75%)
16 | CC(=O)N1CC2(CCN(c3cc(C(F)(F)F)ccc3CN3CCN(C(=O)OC(C(F)(F)F)C(F)(F)F)CC3)C2)C1 [Example 180, 1,1,1,3,3,3-Hexafluoropropan-2-yl 4-(2-(2-acetyl-2,6-diazaspiro[3,4]octan-6-yl)-4-(trifluoromethyl)benzyl)pipera zine-1-carboxylate] | # (# is ≤25%) | ### (### is ≥75%)
17 | CN1CC2CN(c3cc(Cl)ccc3CN3CCN(C(=O)OC(C(F)(F)F)C(F)(F)F)CC3)CC2C1 (stereo not shown) [Example 206, 1,1,1,3,3,3-Hexafluoropropan-2-yl 4-(4-chloro-2-(5-methylhexahydropyrrolo[3,4-c]pyrrol-2(1H)-yl)benzyl)piperazine-1-carboxylate] | # (# is ≤25%) | ### (### is ≥75%)
18 | CCN1CC2(CCN(c3cc(Cl)ccc3CN3CCN(C(=O)OC(C(F)(F)F)C(F)(F)F)CC3)C2)C1 [Example 173, 1,1,1,3,3,3-Hexafluoropropan-2-yl 4-(4-chloro-2-(2-ethyl-2,6-diazaspiro[3.4]octan-6-yl)benzyl)piperazine-1-carboxylate] | # (# is ≤25%) | ### (### is ≥75%)
19 | Cc1cc(N2CCOCC2)ccc1CN1CC2(CCN(C(=O)OC(C(F)(F)F)C(F)(F)F)CC2)C1 [Example 82, 1,1,1,3,3,3-Hexafluoropropan-2-yl 2-(2-methyl-4-morpholinobenzyl)-2,7-diazaspiro[3.5]nonane-7-carboxylate] | ### (### is ≥75%) | ### (### is ≥75%)
20 | CC(=O)N1CCN(c2cccc(C(F)(F)F)c2CN2CC3(CCN(C(=O)OC(C(F)(F)F)C(F)(F)F)CC3)C2)CC1 [Example 59, 1,1,1,3,3,3-Hexafluoropropan-2-yl 2-(2-(4-acetylpiperazin-1-yl)-6-(trifluoromethyl)benzyl)-2,7-diazaspiro[3.5]nonane-7-carboxylate] | ### (### is ≥75%) | ### (### is ≥75%)
